# In patent US10265303B2, “Hyperphenylalaninemia and treatments thereof” (BERGEN TEKNOLOGIOVERFØRING AS, priority 2015, dated 2019):
# Changes are numbered by the printed parent chain.
# How the values were obtained:
# [1] = molecular target: T1, R261Q-PAH (Homo sapiens, UniProt P00439, R261Q); assay: PAH protein level and activity in HEK293 EBNA cells transiently expressing PKU mutant R261Q; assay type: cell-based; settings: 24 h
# T1 construct: expressed in transfected cells; host or cells: HEK293 EBNA, transient, pcDNA3-PAH
# T1 sequence (P00439 1-452 R261Q): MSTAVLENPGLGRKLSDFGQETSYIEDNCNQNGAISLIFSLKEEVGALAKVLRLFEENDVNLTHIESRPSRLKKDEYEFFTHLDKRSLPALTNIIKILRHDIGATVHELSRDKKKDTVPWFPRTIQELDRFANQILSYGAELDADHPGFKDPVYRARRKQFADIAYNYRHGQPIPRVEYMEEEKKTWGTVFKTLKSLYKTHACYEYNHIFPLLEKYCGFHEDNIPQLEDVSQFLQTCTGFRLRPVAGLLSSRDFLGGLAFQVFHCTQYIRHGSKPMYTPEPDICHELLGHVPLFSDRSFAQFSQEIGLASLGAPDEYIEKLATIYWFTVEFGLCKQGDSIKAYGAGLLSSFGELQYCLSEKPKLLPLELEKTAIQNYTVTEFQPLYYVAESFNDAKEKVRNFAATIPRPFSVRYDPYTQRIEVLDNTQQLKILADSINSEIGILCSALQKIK
# Procedure: Cell lysates were prepared as indicated above.
# [2] = molecular target: R68S-PAH (Homo sapiens, UniProt P00439, R68S); settings: 200 μM, 24 h, 1% DMSO
# Procedure: (§1) A similar assay was used to measure PAH activity in cells lysates using 1 mM L-Phe and 200 μM BH4 with 10 min reactions and about 20-90 μg of total protein. Free amino acids and contaminants of low molecular weight were previously removed from the extracts using Zebra Desalt Spin columns (Pierce Biotechnology).
# (§2) For transient expression of WT and mutant PAH, HEK293 EBNA (Epstein-Barr virus) cells, with low endogenous PAH expression, were grown as above. Cells were grown for 19 h, when they were transfected transiently transfected with […] of pcDNA3-PAH vector (WT or mutant PAH constructs R261Q, R252W, I65T and R68S) using the Lipofectamine system (Life Technologies™) as described by the manufacturer. Compound 53, with and without BH2 (200 μM) was added after 5 h of transfection at 200 μM concentration in 1% DMSO, and further incubated for 24 h, at which time the cells were harvested and stored at −80° C. In all cases a parallel negative control with only 1% DMSO was included. Cell lysates were prepared as indicated above.
# (§3) Western blot analyses were performed on either cell extracts from permanently expressing or transiently transfected HEK293 cell lysates after SDS-PAGE (10% acrylamide) with 5-10 μg total protein in each lane. […] Neomycin phosphotransferase II was used as a marker of the plasmid transfection efficiency, and GAPDH was used as loading controls. […]
# [3] = molecular target: T2, human wild-type PAH (Homo sapiens, UniProt P00439); assay: PAH immunoreactive protein level (Western blot) in HEK293 cells permanently expressing human wild-type PAH; assay type: cell-based; settings: 0.04 mg/ml (average 116.7 μM), 1% DMSO, 8 h
# T2 construct: expressed in transfected cells
# T2 sequence (P00439 1-452): T1 sequence (P00439 1-452 R261Q) with Q261R
# Procedure: Human embryonic kidney cells (HEK293; Life Technologies™) permanently expressing WT-hPAH, prepared with the Flp-In system (Life Technologies™) were kindly provided by Per Knappskog, Haukeland University Hospital. About 1 million cells were grown in DMEM medium containing 4.5 g/l glucose, 10% (v/v) fetal calf serum, 0.25 mg/ml gentamycine, 2 mM L-glutamine and 50 μg/ml hygromycin B, and after 24 h medium was changed and the test compounds were added at a concentration of 0.02 mg/ml (1% DMSO). Eight hours later, the cells were harvested, and the pellets frozen in dry ice and stored at −80° C. […] To prepare the cell extracts, the frozen cell pellets were thawed in TBS (+protease inhibitor) buffer and cells were homogenized with 0.1% TX-100, incubated 15 minutes at 4° C. and extracts were clarified by centrifugation 20000 g for 15 min at 4° C. Protein concentrations were normalized using a Direct Detect Spectrometer (Merck Millipore).
# The 7 selected compounds as well as the first generation pharmacological chaperones (Compounds III and IV) were further analyzed in the presence and absence of BH2 (200 μM), added as precursor of BH4, to account for additive effects. A higher concentration of compound was also used 0.04 mg/ml (average of 116.7 μM) at otherwise same experimental conditions.
# [4] = molecular target: T3, R252W-PAH (Homo sapiens, UniProt P00439, R252W); assay: PAH protein level and activity in HEK293 EBNA cells transiently expressing PKU mutant R252W; assay type: cell-based
# T3 construct: expressed in transfected cells; host or cells: HEK293 EBNA, transient, pcDNA3-PAH
# T3 sequence (P00439 1-452 R252W): T1 sequence (P00439 1-452 R261Q) with R252W, Q261R
# Procedure: as §1, §2, §3
# [5] = molecular target: tryptophan hydroxylase 2 (TPH2) (Homo sapiens, UniProt Q8IWU9); settings: 68.9 μM, respect to 2% DMSO controls
# tryptophan hydroxylase 2 (TPH2), sequence (Q8IWU9 whole entry, species assumed): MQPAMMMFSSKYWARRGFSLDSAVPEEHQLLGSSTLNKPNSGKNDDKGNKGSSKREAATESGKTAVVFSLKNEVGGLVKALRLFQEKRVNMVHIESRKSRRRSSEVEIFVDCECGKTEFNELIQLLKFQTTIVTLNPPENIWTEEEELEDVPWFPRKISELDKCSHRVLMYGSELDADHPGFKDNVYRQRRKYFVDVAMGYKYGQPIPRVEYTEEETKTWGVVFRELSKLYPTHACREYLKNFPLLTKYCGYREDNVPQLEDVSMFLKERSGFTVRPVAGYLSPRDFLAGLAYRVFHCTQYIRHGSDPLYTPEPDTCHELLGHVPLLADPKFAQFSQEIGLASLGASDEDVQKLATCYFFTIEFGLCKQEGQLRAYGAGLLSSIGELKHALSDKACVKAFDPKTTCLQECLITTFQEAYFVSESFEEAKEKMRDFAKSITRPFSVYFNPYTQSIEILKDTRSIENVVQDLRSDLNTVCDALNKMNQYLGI
# R68S-PAH, sequence (P00439 whole entry R68S): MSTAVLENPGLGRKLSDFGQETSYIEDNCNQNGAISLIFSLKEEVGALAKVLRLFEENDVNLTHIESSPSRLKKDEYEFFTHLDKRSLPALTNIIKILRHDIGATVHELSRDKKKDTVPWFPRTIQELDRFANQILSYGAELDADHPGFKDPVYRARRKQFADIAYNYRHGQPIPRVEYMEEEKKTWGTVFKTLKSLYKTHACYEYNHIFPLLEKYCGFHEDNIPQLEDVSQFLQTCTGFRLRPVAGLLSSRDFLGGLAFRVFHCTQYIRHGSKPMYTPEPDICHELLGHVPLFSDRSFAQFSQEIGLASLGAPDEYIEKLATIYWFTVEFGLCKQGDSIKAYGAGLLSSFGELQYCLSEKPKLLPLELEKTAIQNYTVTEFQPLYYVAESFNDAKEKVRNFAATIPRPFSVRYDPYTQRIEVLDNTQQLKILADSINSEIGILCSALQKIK
smiles,measurement,setting,value
"COc1cc(Cc2cnc(N)nc2N)cc(OC)c1OC [c53, trimethoprim]","protein and activity, mutant R261Q, Compound 53 and BH2 together",[1]; 200 μM each,trends for additive effects
same,"PAH activity, mutant R261Q","[1]; 200 μM, 1% DMSO",greatly increased
same,"hPAH protein level, mutant R261Q","[1]; 200 μM, 1% DMSO",greatly increased
same,"PAH activity, mutant R68S",[2],An effect
same,effect on PAH protein (FIG. 1A),[3],very large stimulating effect
same,"effect on mutant R252W (protein, activity)","[4]; 200 μM alone, 24 h, 1% DMSO",neither the compound or BH4 affected
same,"protein content, mutant R252W, compound and cofactor analogue together","[4]; Compound 53 200 μM plus BH2 200 μM, 24 h (FIG. 2D)",a little stimulation of the protein content
same,effect on TPH2 activity,[5],did not have large effect
